Laboratory results reported in ChEMBL document CHEMBL4673405, “Novel Linker Variants of Antileishmanial/Antitubercular 7-Substituted 2-Nitroimidazooxazines Offer Enhanced Solubility” (ACS Med Chem Lett, 2021).
≈ marks a conversion by molar mass, not a printed value.

What was measured:
[1] = tested on: Leishmania donovani; assay: (§1) Antileishmanial activity against Leishmania donovani MHOM/ET/67/HU3 amastigotes infected in BALB/c mouse model of visceral leishmaniasis assessed as reduction in parasite burden in liver at 12.5 mg/kg, po administered once daily for 5 consecutive days starting after 7 days post-infection by microscopic analysis relative to control; assay type: functional; set-up: scale not given: the % may be the effect or the level left; details: time 5 day
[2] = tested on: Leishmania donovani; assay: as §1, with “25” for “12.5”; assay type: functional; set-up: scale not given: the % may be the effect or the level left; details: time 5 day
[3] = Aqueous solubility of the compound at pH 7 sonicated for 15 mins by HPLC analysis; details: aqueous medium
[4] = tested on: Leishmania donovani; assay: as §1, with “50” for “12.5”; assay type: functional; set-up: scale not given: the % may be the effect or the level left; details: time 5 day
[5] = Solubility of the compound in 0.1 M HCl at pH 1 sonicated for 15 mins by HPLC analysis; assay type: physicochemical
[6] = tested on: MRC5; assay: Cytotoxicity against human MRC5 cells assessed as reduction in cell viability measured after 72 hrs by resazurin assay; assay type: ADME, cell-based; details: MRC5, 72 h
[7] = tested on: Leishmania donovani; assay: as §1, with “6.25” for “12.5”; assay type: functional; set-up: scale not given: the % may be the effect or the level left; details: time 5 day
[8] = tested on: Leishmania infantum; assay: Antileishmanial activity against Leishmania infantum MHOM/MA(BE)/67 amastigotes infected in mouse peritoneal macrophages incubated for 5 days by Giemsa staining based assay; assay type: functional, organism-based; details: MHOM/MA(BE)/67, Peritoneal macrophage, 120 h
[9] = Microsomal stability in human liver microsomes assessed as parent compound remaining at 1 uM measured up to 60 mins in presence of NADPH by LC-MS/MS analysis
[10] = Microsomal stability in mouse liver microsomes assessed as parent compound remaining at 1 uM measured up to 60 mins in presence of NADPH by LC-MS/MS analysis
[11] = tested on: Mycobacterium tuberculosis; assay: Antitubercular activity against Mycobacterium tuberculosis H37Rv assessed as minimum inhibitory concentration required to inhibit 90% of bacterial growth incubated for 7 days under aerobic condition by microplate Alamar blue assay; assay type: functional; details: 168 h, time 7 day
[12] = tested on: Mycobacterium tuberculosis; assay: Antitubercular activity against Mycobacterium tuberculosis H37Rv assessed as minimum inhibitory concentration required to inhibit 90% of bacterial growth incubated for 10 days under anerobic condition followed by incubation under ambient gaseous condition for 7 days by low oxygen recovery assay; assay type: functional; details: 408 h, time 17 day
[13] = tested on: Leishmania donovani; assay: as §1, with “spleen” for “liver”, “50” for “12.5”; assay type: functional; set-up: scale not given: the % may be the effect or the level left; details: time 5 day
[14] = in vivo; details: BALB/c, mouse, po, 25 mg/kg
[15] = tested on: Leishmania donovani; assay: Antileishmanial activity against Leishmania donovani MHOM/ET/67/HU3 amastigotes infected in po dosed BALB/c mouse model of visceral leishmaniasis assessed as reduction in parasite burden in liver at administered once daily for 5 consecutive days starting after 7 days post-infection by microscopic analysis; assay type: functional; details: MHOM/ET/67/HU3, po, 120 h, time 5 day
[16] = in vivo; details: BALB/c, mouse, po, 25 mg/kg; remark: listed apart in the source
[17] = Initial plasma concentration in BALB/c mouse at 1 mg/kg, iv measured up to 24 hrs by LC-MS/MS analysis
[18] = in vivo; details: BALB/c, mouse, po, 25 mg/kg; remark: listed apart in the source
Description: AUClast in BALB/c mouse at 25 mg/kg, po measured up to 24 hrs by LC-MS/MS analysis

[19] = tested on: Leishmania donovani; assay: as §1, with “spleen” for “liver”, “25” for “12.5”; assay type: functional; set-up: scale not given: the % may be the effect or the level left; details: time 5 day
[20] = Half life in BALB/c mouse at 1 mg/kg, iv measured up to 24 hrs by LC-MS/MS analysis; details: in vivo
[21] = in vivo; details: BALB/c, mouse, po, 25 mg/kg; remark: listed apart in the source
[22] = Half life in BALB/c mouse at 25 mg/kg, po measured up to 24 hrs by LC-MS/MS analysis; assay type: ADME, organism-based; details: in vivo
[23] = Volume of distribution at steady state in BALB/c mouse at 1 mg/kg, iv measured up to 24 hrs by LC-MS/MS analysis; details: in vivo
[24] = Clearance in BALB/c mouse at 1 mg/kg, iv measured up to 24 hrs by LC-MS/MS analysis; details: in vivo
[25] = AUClast in BALB/c mouse at 1 mg/kg, iv measured up to 24 hrs by LC-MS/MS analysis; details: in vivo

Compound CC1(COc2ccc(OC(F)(F)F)cc2)CCn2cc([N+](=O)[O-])nc2O1 (configuration not stated) has an Activity [1] of 100% and an Activity [2] of 100%.
Work on CC1(CNc2ccc(OC(F)(F)F)cc2)CCn2cc([N+](=O)[O-])nc2O1 (configuration not stated) yielded a solubility at 0.25 h [3] of 3 µg/mL (≈ 8.06 µM), an Activity [4] greater than 99% and a solubility at 0.25 h [5] of 10 µg/mL (≈ 26.9 µM). The IC50 [6] was no less than 40000 nM, the Activity [7] was 29% and the IC50 [8] was 180 nM.
Compound CC1(CNS(=O)(=O)c2ccc(OC(F)(F)F)cc2)CCn2cc([N+](=O)[O-])nc2O1 (configuration not stated) has an IC50 [6] of no less than 40000 nM and an IC50 [8] of 2200 nM.
CN(CC1CCn2cc([N+](=O)[O-])nc2O1)c1ccc(OC(F)(F)F)cc1 (configuration not stated) gave an IC50 [6] of no less than 40000 nM and an IC50 [8] of 220 nM.
Work on C[C@@]1(COC(=O)Nc2ccc(OC(F)(F)F)cc2)CCn2cc([N+](=O)[O-])nc2O1 yielded a solubility at 0.25 h [3] of 7.9 µg/mL (≈ 19 µM), an Activity [1] of 31% and an IC50 [6] of no less than 40000 nM. The Activity [2] was 51% and the IC50 [8] was 200 nM.
With CN(CC1(C)CCn2cc([N+](=O)[O-])nc2O1)c1ccc(F)cc1 (configuration not stated) the IC50 [6] was no less than 40000 nM and the IC50 [8] was 480 nM.
Work on O=[N+]([O-])c1cn2c(n1)OC(CNc1ccc(OC(F)(F)F)cc1)CC2 (configuration not stated) yielded an IC50 [6] of no less than 40000 nM and an IC50 [8] of 150 nM.
CC1(COc2ccc(Cl)cc2)CCn2cc([N+](=O)[O-])nc2O1 (configuration not stated) showed an IC50 [6] of no less than 40000 nM and an IC50 [8] of 130 nM.
For CC1(COCc2ccc(OC(F)(F)F)cc2)CCn2cc([N+](=O)[O-])nc2O1 (configuration not stated), the IC50 [6] was no less than 40000 nM and the IC50 [8] was 300 nM.
Work on CN(CC1(C)CCn2cc([N+](=O)[O-])nc2O1)c1ccc(OC(F)(F)F)cc1 (configuration not stated) yielded a solubility at 0.25 h [3] of 1.5 µg/mL (≈ 3.88 µM), an Activity [4] of 58% and a solubility at 0.25 h [5] of 4.6 µg/mL (≈ 11.9 µM). For the same compound, the IC50 [6] was no less than 40000 nM and the IC50 [8] was 270 nM.
In the case of CC1(CNC(=O)Cc2ccc(OC(F)(F)F)cc2)CCn2cc([N+](=O)[O-])nc2O1 (configuration not stated), the IC50 [6] is reported as no less than 40000 nM and the IC50 [8] is reported as 2000 nM.
With CC1(CNC(=O)Nc2ccc(OC(F)(F)F)cc2)CCn2cc([N+](=O)[O-])nc2O1 (configuration not stated) the remaining at 1 h, 1 µM [9] was 54%, the solubility at 0.25 h [3] was 121 µg/mL (≈ 291 µM) and the Activity [4] was 36%. It also gave a remaining at 1 h, 1 µM [10] of 39%, an IC50 [6] of no less than 40000 nM and an IC50 [8] of 1400 nM.
C[C@]1(COC(=O)Nc2ccc(OC(F)(F)F)cc2)CCn2cc([N+](=O)[O-])nc2O1 showed a solubility at 0.25 h [3] of 6.3 µg/mL (≈ 15.1 µM), an Activity [1] of 40% and an MIC90 [11] of 0.085 µM (≈ 0.0354 µg/mL). For the same compound, the IC50 [6] was no less than 40000 nM, the MIC90 [12] was 1 µM (≈ 0.416 µg/mL) and the Activity [2] was 89%. For the same compound, the IC50 [8] was 140 nM.
Compound CC1(CNc2ccc(Cl)cc2)CCn2cc([N+](=O)[O-])nc2O1 (configuration not stated) has an IC50 [6] of no less than 40000 nM and an IC50 [8] of 290 nM.
CC1(COC(=O)Nc2ccc(OC(F)(F)F)cc2)CCn2cc([N+](=O)[O-])nc2O1 (configuration not stated) showed a solubility at 0.25 h [3] of 11 µg/mL (≈ 26.4 µM), an Activity [4] greater than 99% and an Activity [13] of 100%. It also gave a bioavailability at 24 h [14] of 100%, an ED50 [15] of 16 mg/kg and an Activity [1] of 7%. It also gave a Cmax at 24 h [16] of 13500 ng/mL, a C0 at 24 h [17] of 800 ng/mL and an AUC(0-t) at 24 h [18] of 57800 ng·h/mL. The IC50 [6] was no less than 40000 nM, the Activity [19] was 96% and the half-life at 24 h [20] was 1.3 h. For the same compound, the Tmax at 24 h [21] was 0.75 h, the half-life [22] was 1.7 h and the Activity [2] was 97%. For the same compound, the Vd at 24 h [23] was 1.2 L/kg, the clearance at 24 h [24] was 8.5 mL/min/kg and the AUC(0-t) at 24 h [25] was 2070 ng·h/mL. The IC50 [8] was 360 nM.
CN(CC1(C)CCn2cc([N+](=O)[O-])nc2O1)c1ccc(Cl)cc1 (configuration not stated) gave an IC50 [6] of no less than 40000 nM and an IC50 [8] of 310 nM.
CC1(CNC(=O)COc2ccc(OC(F)(F)F)cc2)CCn2cc([N+](=O)[O-])nc2O1 (configuration not stated) showed an IC50 [6] of no less than 40000 nM and an IC50 [8] of 1700 nM.
CN(CC1(C)CCn2cc([N+](=O)[O-])nc2O1)c1ccc(C(F)(F)F)nc1 (configuration not stated) showed an IC50 [6] of no less than 40000 nM and an IC50 [8] of 2200 nM.
